Read-outs that look alike come from different tables or passages of the source. Starred links: 1 amine or outer side, 2 acyl side, 3 side chain; linkers in the order of their positions; H or OH if unused. Non-standard residues stand in square brackets, D forms with d. Residues, ends and D or L forms follow the SMILES beside them. 2Furoyl(5-aminomethyl) = O=C(c1ccc(CN[*:1])o1)[*:2]; X1 = O=C(C1CCC(CN[*:1])O1)[*:2]
How the values were obtained:
PA1 (human ovary) = assay: MTT cytotoxicity assay, PA1 cells; type: cell-based; settings: 48 hours
From the text: (§1) The following cell lines were used.

HeP-2 (larynx) = assay: MTT cytotoxicity assay, HeP-2 cells; type: cell-based, human; settings: human, 48 hours
From the text: as §1

[1] = test system: MiaPaCa.2 (human pancreas); assay: MTT cytotoxicity assay, MiaPaCa.2 cells; type: cell-based; settings: 48 hours
From the text: as §1

KB (oral) = assay: MTT cytotoxicity assay, KB cells; type: cell-based, human; settings: human, 48 hours
From the text: as §1

HeP-G2 (liver) = assay: MTT cytotoxicity assay, HeP-G2 cells; type: cell-based, human; settings: human, 48 hours
From the text: as §1

ECV-304 (endothelial) = settings: ECV-304 cells, 48 hours, NA = Not Active
From the text: Although sterile phosphate buffered saline was used to prepare each stock solution for the testing described in the following example, other diluents may be used such as buffered saline, isotonic NaCl, Ringer's solution, water, distilled water, polyethylene glycol (neat or in water), Tween in water, dimethylsulfoxide up to 50% in water, propylene glycol (neat or in water), phosphate buffered saline, balanced salt solution, glycerol, and other conventional fluids that are suitable for parentral administration. To obtain a pH in the range of approximately 3.5 to 7.0, for each stock solution, the pH can be adjusted by using 1N HCl for lowering the pH or 1N NaOH for raising the pH, although other buffers such as citrate buffer, phosphate buffer and the like or other conventional agents for adjusting the pH can be used.
The MTT assay is based on the principle of uptake of MTT [3-[4,5-dimethylthiazol-2-yl]-2,5-diphenyl tetrazolium bromide], a tetrazolium salt, by the metabolically active cells where it is metabolized by active mitochondria into a blue colored formazan product which can be read spectrophotometrically. […] The formazan crystals formed inside the cells were dissolved with a detergent comprising of 10% Sodium dodecyl sulfate and 0.01 N HCl and optical density read on a multi-scan ELISA reader. The optical density was directly proportional to the number of proliferating and metabolically active cells. The following cell lines were used. PA1(human ovary), PTC (colon), HeP-2 (larynx), MiaPaCa.2 (human pancreas), KB (oral), ECV-304 (endothelial) and HeP-G2 (liver).

PTC (colon) = assay: MTT cytotoxicity assay, PTC cells; type: cell-based, human; settings: human, 48 hours
From the text: as §1

SMILES | Percent Cytotoxicity (PA1 (human ovary); human, 1 nM) [%] | Percent Cytotoxicity (PA1 (human ovary); human, 10 nM) [%] | Percent Cytotoxicity (PA1 (human ovary); human, 100 nM) [%] | Percent Cytotoxicity (PA1 (human ovary); human, 1 μM) [%] | Percent Cytotoxicity (HeP-2 (larynx); 1 nM) [%] | Percent Cytotoxicity (HeP-2 (larynx); 10 nM) [%] | Percent Cytotoxicity (HeP-2 (larynx); 100 nM) [%] | Percent Cytotoxicity (HeP-2 (larynx); 1 μM) [%] | Percent Cytotoxicity ([1]; human, 1 nM) [%] | Percent Cytotoxicity ([1]; human, 10 nM) [%] | Percent Cytotoxicity ([1]; human, 100 nM) [%] | Percent Cytotoxicity (KB (oral); 1 nM) [%] | Percent Cytotoxicity (KB (oral); 10 nM) [%] | Percent Cytotoxicity (KB (oral); 100 nM) [%] | Percent Cytotoxicity (KB (oral); 1 μM) [%] | Percent Cytotoxicity (ECV-304 (endothelial); peptide 1 nM) [%] | Percent Cytotoxicity (ECV-304 (endothelial); peptide 10 nM) [%] | Percent Cytotoxicity (ECV-304 (endothelial); peptide 100 nM) [%] | also measured
CSCC[C@H](NC(=O)[C@@H](N)CC(C)C)C(=O)N[C@@H](Cc1ccc(O)cc1)C(=O)NC[C@H]1O[C@H](C(=O)N[C@H](C(=O)N[C@@H](Cc2ccc(O)cc2)C(=O)N[C@@H](CC(C)C)C(=O)N[C@@H](CCCCN)C(=O)O)[C@@H](C)O)[C@@H](OCc2ccccc2)[C@@H]1OCc1ccccc1 [SEQ ID NO: 3, Leu-Met-Tyr-Saa2-Thr-Tyr-Leu-Lys] | 16.8 ± 1.4 | 18.0 ± 1.8 | 12.5 ± 0.0 | 10.8 ± 0.6 | 12.6 ± 2.8 | 15.4 ± 1.3 | 13.9 ± 0.5 | 10.8 ± 0.5 | 21.8 ± 2.1 | 24.0 ± 2.7 | 17.9 ± 1.8 | 12.9 ± 1.3 | 17.7 ± 0.5 | 14.9 ± 1.1 | 9.5 ± 0.1 |  |  |  | Percent Cytotoxicity ([1]; human, 1 μM): 13.9 ± 0.4%; Percent Cytotoxicity (HeP-G2 (liver); 1 nM): 12.3 ± 0.4%; Percent Cytotoxicity (HeP-G2 (liver); 10 nM): 10.7 ± 0.1%; Percent Cytotoxicity (HeP-G2 (liver); 100 nM): 9.5 ± 1.0%; Percent Cytotoxicity (HeP-G2 (liver); 1 μM): 6.9 ± 0.0%
CSCC[C@H](NC(=O)[C@@H](N)CC(C)C)C(=O)NCC1CCC(C(=O)N[C@H](C(=O)N[C@@H](Cc2ccc(O)cc2)C(=O)N[C@@H](CC(C)C)C(=O)N[C@@H](CCCCN)C(=O)O)[C@@H](C)O)O1 (stereo partly drawn) [SEQ ID NO: 8, Leu-Met-Saa3-Thr-Tyr-Leu-Lys] (H-LM[X1]TYLK-OH) |  |  |  |  |  |  |  |  |  |  |  |  |  |  |  | 15.3 ± 1.6 | 12.7 ± 1.6 | 10.8 ± 2.9 | Percent Cytotoxicity (PA1 (human ovary); PA1 cells, peptide 1 nM, NA = Not Active): 12.7 ± 1.9%; Percent Cytotoxicity (PA1 (human ovary); PA1 cells, peptide 10 nM, NA = Not Active): 18.0 ± 1.0%; Percent Cytotoxicity (PA1 (human ovary); PA1 cells, peptide 100 nM, NA = Not Active): 14.8 ± 1.9%; Percent Cytotoxicity (PA1 (human ovary); PA1 cells, peptide 1 μM, NA = Not Active): 9.6 ± 1.0%; Percent Cytotoxicity ([1]; MiaPaCa.2 cells, peptide 1 nM, NA = Not Active): 22.9 ± 2.2%; Percent Cytotoxicity ([1]; MiaPaCa.2 cells, peptide 10 nM, NA = Not Active): 25.5 ± 2.9%; Percent Cytotoxicity ([1]; MiaPaCa.2 cells, peptide 100 nM, NA = Not Active): 22.9 ± 2.6%; Percent Cytotoxicity ([1]; MiaPaCa.2 cells, peptide 1 μM, NA = Not Active): 19.0 ± 0.6%; Percent Cytotoxicity (ECV-304 (endothelial); peptide 1 μM): 7.9 ± 0.1%
CSCC[C@H](NC(=O)[C@@H](N)CC(C)C)C(=O)N[C@@H](Cc1ccc(O)cc1)C(=O)NCc1ccc(C(=O)N[C@@H](Cc2ccc(O)cc2)C(=O)N[C@@H](CC(C)C)C(=O)N[C@@H](CCCCN)C(=O)O)o1 [SEQ ID NO: 10, Leu-Met-Tyr-Saa1-Tyr-Leu-Lys] (H-LMY[2Furoyl(5-aminomethyl)]YLK-OH) | 37.5 ± 3.8 | 32.0 ± 2.9 | 31.0 ± 2.7 | 28.4 ± 2.2 | 35.4 ± 2.9 | 32.0 ± 2.1 | 31.8 ± 3.1 | 28.9 ± 2.1 | 14.9 ± 1.9 | 12.0 ± 1.7 | 9.0 ± 0.6 | 32.0 ± 2.5 | 31.9 ± 2.9 | 29.6 ± 0.7 | 26.0 ± 1.8 | 15.2 ± 1.0 | 12.9 ± 0.5 | 9.4 ± 0.2 | Percent Cytotoxicity (PTC (colon); 1 nM): 30.5 ± 3.2%; Percent Cytotoxicity (PTC (colon); 10 nM): 28.0 ± 2.2%; Percent Cytotoxicity (PTC (colon); 100 nM): 25.6 ± 2.2%; Percent Cytotoxicity (PTC (colon); 1 μM): 21.8 ± 2.8%

Reference: patent US7060678B2, “Peptides comprising furanoid sugar amino acids for the treatment of cancer” (Dabur Research Foundation, priority 2003, dated 2006)
